Experimental data from patent US5552308A, “CDNA clone of a rat serotonin transporter and protein encoded thereby” (priority 1991, dated 1996).

Key:
5-HT transporter [1] = biological target: T1, 5-HT transporter (Rattus norvegicus, UniProt P31652); assay: Inhibition of 3H-5-HT uptake in CV-1 cells transfected with the 5-HT transporter cDNA; assay type: cell-based; details: for inhibition of 5-HT uptake (in words): CV-1 cells transfected with 5HTT cDNA
serotonergic neurons = details: cited from earlier work
5-HT transporter [2] = details: cited from earlier work
5-HT transporter [3] = biological target: T1, 5-HT transporter; assay: 3H-5-HT uptake (saturation kinetics, ion dependence) in CV-1 cells transfected with the 5HTT cDNA; assay type: cell-based; details: read-out: Km of 3H-5-HT uptake; transfected CV-1 cells; 3H-5-HT 0.1 nM to 10 uM; 15 min; mean +/- SEM

T1 sequence (P31652 whole entry): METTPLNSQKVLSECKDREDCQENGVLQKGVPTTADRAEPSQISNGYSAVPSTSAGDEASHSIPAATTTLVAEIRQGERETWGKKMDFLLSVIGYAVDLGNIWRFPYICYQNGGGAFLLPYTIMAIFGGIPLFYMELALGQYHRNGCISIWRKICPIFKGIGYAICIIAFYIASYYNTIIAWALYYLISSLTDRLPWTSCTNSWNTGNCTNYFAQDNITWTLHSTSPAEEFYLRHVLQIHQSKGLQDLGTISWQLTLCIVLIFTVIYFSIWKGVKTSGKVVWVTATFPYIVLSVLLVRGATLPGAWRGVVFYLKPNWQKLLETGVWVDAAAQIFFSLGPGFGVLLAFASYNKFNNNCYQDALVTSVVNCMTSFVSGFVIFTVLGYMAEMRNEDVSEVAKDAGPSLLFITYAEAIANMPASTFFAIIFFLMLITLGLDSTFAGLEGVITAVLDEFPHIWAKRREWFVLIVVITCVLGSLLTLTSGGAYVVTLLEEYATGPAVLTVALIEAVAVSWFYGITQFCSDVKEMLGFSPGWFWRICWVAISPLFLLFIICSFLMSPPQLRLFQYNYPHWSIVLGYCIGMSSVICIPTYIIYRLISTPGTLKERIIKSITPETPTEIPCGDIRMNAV

| Structure (SMILES) | Ki (5-HT transporter [1]) | inhibition of 5-HT uptake (in words) (5-HT transporter [1]) | also measured |
| --- | --- | --- | --- |
| CNC(C)Cc1ccc2c(c1)OCO2 (racemic) [± MDMA, 3,4-Methylenedioxy-methamphetamine] | 186 ± 27 nM | potent inhibition of ^3 H-5-HT uptake | neurotoxicity to serotonergic neurons (in words) (serotonergic neurons): potent neurotoxin of serotonergic neurons which causes irreversible cell degeneration |
| COC(=O)[C@H]1[C@@H](OC(=O)c2ccccc2)C[C@@H]2CC[C@H]1N2C [cocaine] | – | relatively potent inhibitor of 5-HT uptake | – |
| NCCc1ccc(O)c(O)c1 [dopamine] | > 10000 nM | ineffective at blocking 5-HT uptake | – |
| CC(N)Cc1ccccc1 (stereo not drawn) [Amphetamine] | – | – | transport by the 5-HT transporter and release of 5-HT (in words) (5-HT transporter [2]): substrates for transport by the 5-HT transporter and stimulate release of 5-HT |
| NC[C@H](O)c1ccc(O)c(O)c1 [noradrenaline] | > 10000 nM | ineffective at blocking 5-HT uptake | – |
| OC1(c2ccc(Cl)cc2)c2ccccc2C2=NCCN21 (stereo not drawn) [mazindol] | 548 ± 120 nM | lower affinity for the 5-HT transporter | – |
| NCCc1c[nH]c2ccc(O)cc12 [^3 H-5-HT, serotonin] | – | – | Km (5-HT transporter [3]): 0.529 ± 0.107 µM |
